Data reported in patent US20050154230A1, “Urea derivatives” (Bayer HealthCare AG, priority 2001, published 2005).
Read-outs that look alike come from different tables or passages of the source.

Tests used:
human VR1 = target: T1, human VR1 (Homo sapiens, UniProt Q8NER1); experiment: Capsaicin-induced Ca2+ influx in the human VR1-transfected CHO cell line (Assay 1); format: cell-based
T1 construct: expressed in transfected cells
Experimental: [Measurement of Capsaicin-Induced Ca^2+ Influx in the Human VR1-Transfected CHO Cell Line] (Assay 1)
(1) Establishment of the Human VR1-CHOluc9aeq Cell Line
The cloned hVR1 cDNA was constructed with pcDNA3 vector and transfected into a CHOluc9aeq cell line. The cell line contains aequorin and CRE-luciferase reporter genes as read-out signals. The transfectants were cloned by limiting dilution in selection medium (DMEM/F12 medium (Gibco BRL) supplemented with 10% FCS, 1.4 mM Sodium pyruvate, 20 mM HEPES, 0.15% Sodium bicarbonate, 100 U/ml penicillin, 100 μg/ml streptomycin, 2 mM glutamine, non-essential amino acids and 2 mg/ml G418). Ca^2+ influx was examined in the capsaicin-stimulated clones. […] The human VR1-CHOluc9aeq cells were maintained in the selection medium and passaged every 3-4 days at 1-2.5×10^5 cells/flask ([…]).
(2) Measurement of Ca^2+ Influx Using FDSS-3000
Human VR1-CHOluc9aeq cells were suspended in a culture medium which is the same as the selection medium except for G418 and seeded at a density of 1,000 cells per well into 384-well plates (black walled clear-base/Nalge Nunc International). […] After washing twice with assay buffer the cells were incubated with a test compound or vehicle for 20 min at 25° C. […] Integral R was calculated and compared with controls.

[1] = human VR1-CHOluc9aeq cells, 10 nM capsaicin, compound purity about 40 to 90%, read-out: hVR1 class
[2] = human VR1-CHOluc9aeq cells, 10 nM capsaicin, compound purity about 40 to 90%, read-out: Activity grade

T1 sequence (Q8NER1 whole entry): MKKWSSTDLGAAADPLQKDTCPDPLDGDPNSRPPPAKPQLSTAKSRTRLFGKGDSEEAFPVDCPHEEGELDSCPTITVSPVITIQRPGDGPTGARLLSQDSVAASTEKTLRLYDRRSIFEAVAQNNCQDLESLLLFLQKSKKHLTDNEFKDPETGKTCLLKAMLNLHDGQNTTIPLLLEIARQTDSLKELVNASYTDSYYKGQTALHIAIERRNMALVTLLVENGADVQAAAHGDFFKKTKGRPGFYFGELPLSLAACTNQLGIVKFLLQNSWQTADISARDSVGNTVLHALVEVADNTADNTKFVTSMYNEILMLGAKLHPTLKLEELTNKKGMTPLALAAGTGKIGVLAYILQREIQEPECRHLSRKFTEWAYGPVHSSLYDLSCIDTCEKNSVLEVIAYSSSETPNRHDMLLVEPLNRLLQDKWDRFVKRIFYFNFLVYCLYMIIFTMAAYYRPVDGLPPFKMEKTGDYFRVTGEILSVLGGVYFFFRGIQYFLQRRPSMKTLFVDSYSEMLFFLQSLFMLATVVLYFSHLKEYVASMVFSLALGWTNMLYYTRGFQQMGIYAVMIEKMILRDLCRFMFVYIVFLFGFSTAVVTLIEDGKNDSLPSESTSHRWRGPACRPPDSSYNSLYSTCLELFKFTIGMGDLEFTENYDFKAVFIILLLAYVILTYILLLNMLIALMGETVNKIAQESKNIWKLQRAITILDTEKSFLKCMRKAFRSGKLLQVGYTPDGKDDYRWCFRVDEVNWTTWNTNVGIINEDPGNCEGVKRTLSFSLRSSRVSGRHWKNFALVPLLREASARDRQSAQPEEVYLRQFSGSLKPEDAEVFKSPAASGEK

Row | Structure (SMILES) | IC50 (human VR1; [1]) [nM] | melting point | IC50 (human VR1) [nM] | IC50 (human VR1; [2]) [nM]
1 | COc1ccc(OC)c(NC(=O)Nc2ccccc2CCO)c1 [Example 151] | 500 to 1000 | 157 to 158 °C | – | –
2 | Cc1ccc2ccccc2c1NC(=O)Nc1ccccc1CCO [Example 164] | 500 to 1000 | 204 °C | – | –
3 | N#Cc1ccc(NC(=O)Nc2ccccc2CCO)cc1C(F)(F)F [Example 186] | – | 171 °C | < 100 | –
4 | O=C(Nc1ccccc1CCO)Nc1cccc2ccc(O)cc12 [Example 166] | 500 to 1000 | 212 °C | – | –
5 | O=C(Nc1ccc(C(F)(F)F)cc1)Nc1ccccc1CCO [Example 108] | 100 to 500 | 178 to 180 °C | – | –
6 | Nc1ccc2c(c1)C(NC(=O)Nc1ccc(Cl)c(C(F)(F)F)c1)CCC2 (centres unmarked) [Example 96] | 500 to 1000 | 178 °C | – | –
7 | COc1ccccc1-c1cccc(NC(=O)Nc2ccccc2CCO)c1 [Example 205] | 100 to 500 | 130 °C | – | –
8 | COc1ccc(NC(=O)Nc2ccccc2CCO)cc1OC [Example 219] | 500 to 1000 | 186 to 187 °C | – | –
9 | O=C(Nc1cccc(-c2ccccc2Cl)c1)Nc1ccc(Cl)cc1CCO [Example 245] | 100 to 500 | 191 to 193 °C | – | –
10 | O=C(Nc1cccc(-c2ccc(Cl)cc2Cl)c1)Nc1ccccc1CCO [Example 223] | < 100 | 166 °C | – | –
11 | O=C(Nc1ccc(Cl)c(-c2ccc(Cl)cc2)c1)Nc1ccccc1CCO [Example 218] | < 100 | 170 to 172 °C | – | –
12 | COc1cccc(NC(=O)NCc2ccc(O)c(OC)c2)c1 [Example 34] | 500 to 1000 | 133 °C | – | –
13 | O=C(Nc1ccccc1CCO)Nc1cccc(F)c1F [Example 182] | 500 to 1000 | 159 to 161 °C | – | –
14 | O=C(Nc1cc(Cl)nc(Cl)c1)Nc1ccccc1CCO [Example 154] | 500 to 1000 | 194 °C | – | –
15 | Cc1ccc(NC(=O)Nc2ccccc2CCO)cc1F [Example 181] | 500 to 1000 | 184 to 186 °C | – | –
16 | CCOc1ccccc1NC(=O)Nc1ccccc1CCO [Example 146] | 500 to 1000 | 112 to 114 °C (dec.) | – | –
17 | O=C(Nc1cccc(-c2ccccc2Cl)c1)Nc1cc(C(F)(F)F)ccc1CCO [Example 233] | 100 to 500 | 185 to 187 °C | – | –
18 | O=C(Nc1cc(F)c(F)cc1F)Nc1ccccc1CCO [Example 183] | 500 to 1000 | 172 to 174 °C | – | –
19 | O=C(Nc1ccc(F)cc1)Nc1ccccc1CCO [Example 131] | 500 to 1000 | 183 °C | – | –
20 | O=C(Nc1ccc(Cl)c(-c2ccccc2)c1)Nc1ccccc1CCO [Example 202] | 100 to 500 | 185 °C | – | –
21 | O=C(Nc1ccc([N+](=O)[O-])c(C(F)(F)F)c1)Nc1ccccc1CCO [Example 187] | 100 to 500 | 149 to 150 °C | – | –
22 | O=C(Nc1ccc(F)cc1F)Nc1ccccc1CCO [Example 145] | 500 to 1000 | 174 to 176 °C (dec.) | – | –

Row | Structure (SMILES) | IC50 (human VR1; [1]) [nM] | melting point | IC50 (human VR1) [nM] | IC50 (human VR1; [2]) [nM]
23 | COc1cc(CNC(=O)Nc2ccc(F)cc2)ccc1O [Example 56] | 500 to 1000 | 211 to 212 °C | – | –
24 | COc1ccc(CNC(=O)Nc2ccccc2CCO)cc1 [Example 127] | 500 to 1000 | 175 to 177 °C | – | –
25 | O=C(NCc1ccc(Br)cc1)Nc1ccccc1CCO [Example 103] | 100 to 500 | 198 to 200 °C | – | –
26 | O=C(Nc1ccc2c(c1)Cc1ccccc1-2)Nc1ccccc1CCO [Example 169] | < 100 | > 250 °C | – | –
27 | O=C(Nc1cccc(-c2cc(F)cc(F)c2)c1)Nc1ccccc1CCO [Example 208] | < 100 | 169 °C | – | –
28 | COC(=O)c1ccccc1NC(=O)Nc1ccccc1CCO [Example 118] | 500 to 1000 | 128 °C | – | –
29 | Cc1ccccc1Oc1ccccc1NC(=O)Nc1ccccc1CCO [Example 175] | 500 to 1000 | 170 to 172 °C | – | –
30 | O=C(Nc1ccccc1CCO)Nc1ccccc1Cc1ccccc1 [Example 157] | 500 to 1000 | 162 to 164 °C | – | –
31 | O=C(Nc1cccc(-c2ccc(OCc3ccccc3)c(F)c2)c1)Nc1ccccc1CCO [Example 236] | < 100 | 181 to 182 °C | – | –
32 | COc1cc(CNC(=O)Nc2ccc(C(C)C)cc2)ccc1O [Example 1-1, N-(4-hydroxy-3-methoxybenzyl)-N′-(4-isopropylphenyl)urea] | – | 156 °C | < 100 | –
33 | COc1ccc(OC)c(-c2cccc(NC(=O)Nc3ccccc3CCO)c2)c1 [Example 198] | 100 to 500 | 170 °C | – | –
34 | COc1cc(CNC(=O)Nc2cccc(-c3ccc(Cl)cc3)c2)ccc1O [Example 2-1, N-(4′-chloro-1,1′-biphenyl-3-yl)-N′-(4-hydroxy-3 methoxybenzyl)urea] | – | 153.4 °C | – | < 100
35 | O=C(Nc1ccc(F)c([N+](=O)[O-])c1)Nc1ccccc1CCO [Example 111] | 500 to 1000 | 185 °C | – | –
36 | CC(C)c1ccc(NC(=O)Nc2ccccc2CCO)cc1 [Example 101] | 100 to 500 | 149 to 150 °C | – | –
37 | COc1cc(CNC(=O)Nc2ccc(Br)cc2)ccc1O [Example 63] | 100 to 500 | 203 °C | – | –
38 | CSc1ccc(NC(=O)Nc2ccccc2CCO)cc1 [Example 156] | 500 to 1000 | 176 to 177 °C | – | –
39 | Cc1ccccc1CNC(=O)Nc1ccccc1CCO [Example 123] | 500 to 1000 | 186 to 188 °C | – | –
40 | O=C(Nc1ccc(-c2ccc(F)cc2)cc1)Nc1ccccc1CCO [Example 192] | 100 to 500 | 197 °C | – | –
41 | O=C(Nc1ccc(Cc2ccccc2)cc1)Nc1ccccc1CCO [Example 158] | 100 to 500 | 164 to 166 °C | – | –
42 | O=C(Nc1cccc(-c2cccc([N+](=O)[O-])c2)c1)Nc1ccccc1CCO [Example 234] | < 100 | 188 °C | – | –
43 | O=C(Nc1cccc(-c2cccnc2)c1)Nc1ccccc1CCO [Example 212] | 500 to 1000 | 178.9 °C | – | –
44 | O=C(Nc1ccc(Br)cc1)Nc1ccccc1CCO [Example 114] | 500 to 1000 | 208 °C | – | –

Row | Structure (SMILES) | IC50 (human VR1; [1]) [nM] | melting point | IC50 (human VR1) [nM] | IC50 (human VR1; [2]) [nM]
45 | O=C(Nc1cc(Cl)cc(Cl)c1)Nc1ccccc1CCO [Example 109] | 100 to 500 | 214 to 216 °C | – | –
46 | Cc1cccc(NC(=O)Nc2ccccc2CCO)c1 [Example 129] | 500 to 1000 | 186 °C | – | –
47 | COc1ccccc1NC(=O)Nc1ccccc1CCO [Example 134] | 500 to 1000 | 154 °C | – | –
48 | O=C(Nc1cccc(-c2cccc(OC(F)(F)F)c2)c1)Nc1ccccc1CCO [Example 239] | < 100 | 166 °C | – | –
49 | O=C(Nc1cccc(-c2ccccc2F)c1)Nc1ccccc1CCO [Example 210] | < 100 | 171 to 172 °C | – | –
50 | N#Cc1ccc(-c2cccc(NC(=O)Nc3ccccc3CCO)c2)cc1 [Example 230] | < 100 | 180 to 182 °C | – | –
51 | O=C(NCc1ccccc1)Nc1ccccc1CCO [Example 153] | 500 to 1000 | 149 to 150 °C | – | –
52 | O=C(Nc1ccc(-c2ccccc2)c(Cl)c1)Nc1ccccc1CCO [Example 244] | 100 to 500 | 178 °C | – | –
53 | COc1cccc(NC(=O)Nc2ccccc2CCO)c1 [Example 135] | 500 to 1000 | 169 °C | – | –
54 | O=C(Nc1ccc(F)c(F)c1)Nc1ccccc1CCO [Example 179] | 500 to 1000 | 162 to 164 °C | – | –
55 | O=C(Nc1cccc(-c2ccc(C(F)(F)F)cc2)c1)Nc1ccccc1CCO [Example 222] | < 100 | 198 °C | – | –
56 | COc1cc(CNC(=O)Nc2ccc(C)cc2C)ccc1O [Example 62] | 500 to 1000 | 184 °C | – | –
57 | O=C(Nc1cccc(F)c1)Nc1ccccc1CCO [Example 132] | 500 to 1000 | 166 °C | – | –
58 | O=C(Nc1ccccc1Cl)Nc1ccccc1CCO [Example 104] | 500 to 1000 | 173 to 175 °C | – | –
59 | O=C(Nc1cccc(Cl)c1)Nc1ccccc1CCO [Example 105] | 500 to 1000 | 188 to 190 °C | – | –
60 | O=C(Nc1ccc(Cl)c(Cl)c1)Nc1ccccc1CCO [Example 1-2, N-(3,4-dichlorophenyl)-N′-[2-(2-hydroxyethyl)phenyl]urea] | – | 188 to 190 °C | – | < 100
61 | N#Cc1ccc(NC(=O)Nc2ccccc2CCO)cc1Cl [Example 191] | 100 to 500 | 186 to 187 °C | – | –
62 | O=C(NCc1ccccc1Cl)Nc1ccccc1CCO [Example 126] | 500 to 1000 | 183 to 185 °C | – | –
63 | N#Cc1cccc(-c2cccc(NC(=O)Nc3ccccc3CCO)c2)c1 [Example 232] | < 100 | 186 to 187 °C | – | –
64 | O=C(Nc1cccc(-c2ccc(Cl)c(Cl)c2)c1)Nc1ccccc1CCO [Example 216] | < 100 | 180 °C | – | –
